Data from US12239134B2, “Plant antimicrobial compositions including an emulsifier and/or ozone and methods of use” (Arizona Board of Regents on Behalf of The University of …, priority 2018, dated 2025).

System: Salmonella Newport
Experiment: Biofilm formation on food contact surface coupons, direct plating
Assay type: cell-based, Salmonella enterica
Conditions: two-minute treatment
Procedure: A protocol based on direct plating was also evaluated for testing the biofilm formation by Salmonella or L. monocytogenes. Biofilms were formed on three different food contact surface coupons (HDPE, Buna-N rubber, and 316 stainless steel) for up to 3 days in 35 mm mini-petri dishes. Biofilms were formed using a 1:10 diluted TSB solution (10 mL) with either S. enterica or L. monocytogenes inoculum (100 μL). The diluted TSB was changed every 16-18 hours with new 1:10 diluted TSB (10 mL). Coupons were removed for sampling and enumeration of strongly attached bacteria at three different time points (Day 0, 1, and 3). The coupons were rinsed with deionized water five times to remove planktonic cells. Then the coupons were immersed in 10 mL of BPW. The coupons were sonicated for 2 minutes using different settings (Tables 11 and 12) for each organism. After sonication, the solution was serially diluted and plated on Tryptic Soy Agar (TSA). Plates were incubated at 37° C. for 24-48 hours. The colonies were counted and the colony forming units were determined for the various sonication settings, so that the appropriate setting with the most recovery could be determined. […] These settings were used in further experiments to recover the bacterial cells from coupons during sampling and enumeration (by spread plating) of the bacteria in biofilms.
The reduction in bacterial biofilm formation was also tested using a direct plating method. Biofilms were formed on six different food contact surface coupons (HDPE, Buna-N rubber, PC, PVC, and stainless steel 304 and 316) in separate 35 mm mini-petri dishes and evaluated at three different time points (Day 0, 1, and 3). Biofilms were formed using a 1:10 diluted TSB solution (10 mL) with either S. enterica or L. monocytogenes inoculum (100 μL). The coupons were also washed and treated with antimicrobial solutions containing the plant-based emulsifier and the essential oil/plant extracts at various concentrations. The diluted TSB was changed every 16-18 hours with new 1:10 diluted TSB (10 mL). The coupons were rinsed in the antimicrobial solution before adding them to the petri dishes containing the fresh, diluted TSB. After their specific time points, coupons were removed aseptically using sterile forceps from the petri dish. The coupons were rinsed by submerging in 25 mL of sterile deionized H2O and swirled five times to remove planktonic cells. After rinsing, they were placed into a new petri dish immersed in 10 mL of BPW. The coupons were sonicated for 2 minutes on ice using different settings for each organism. After sonication, the sonicated solution was serially diluted using 0.1% peptone water and spread plated on TSA in duplicate. Plates were incubated overnight at 37° C. for 24-48 hours, after which, the colonies were counted, to establish the efficacy of the antimicrobial solutions (Tables 17-25).

## O=CC=Cc1ccccc1 [Cinnamaldehyde, cinnamaldehyde]
0.5% with 0.0001% saponin microemulsion, Day 0, 304 SS
  Survivors of Salmonella Newport on food contact surface: 4.31 Log CFU/mL
0.5% with 0.0001% saponin microemulsion, Day 0, 316 SS
  Survivors of Salmonella Newport on food contact surface: 4.30 Log CFU/mL
0.5% with 0.0001% saponin microemulsion, Day 0, Buna N
  Survivors of Salmonella Newport on food contact surface: 4.23 Log CFU/mL
0.5% with 0.0001% saponin microemulsion, Day 0, HDPE
  Survivors of Salmonella Newport on food contact surface: 4.27 Log CFU/mL
0.5% with 0.0001% saponin microemulsion, Day 0, PC
  Survivors of Salmonella Newport on food contact surface: 4.06 Log CFU/mL
0.5% with 0.0001% saponin microemulsion, Day 0, PVC
  Survivors of Salmonella Newport on food contact surface: 3.93 Log CFU/mL
0.5% with 0.0001% saponin microemulsion, Day 1, 304 SS
  Survivors of Salmonella Newport on food contact surface: 4.45 Log CFU/mL
0.5% with 0.0001% saponin microemulsion, Day 1, 316 SS
  Survivors of Salmonella Newport on food contact surface: 4.48 Log CFU/mL
0.5% with 0.0001% saponin microemulsion, Day 1, Buna N
  Survivors of Salmonella Newport on food contact surface: 4.87 Log CFU/mL
0.5% with 0.0001% saponin microemulsion, Day 1, HDPE
  Survivors of Salmonella Newport on food contact surface: 4.24 Log CFU/mL
0.5% with 0.0001% saponin microemulsion, Day 1, PC
  Survivors of Salmonella Newport on food contact surface: 4.20 Log CFU/mL
0.5% with 0.0001% saponin microemulsion, Day 1, PVC
  Survivors of Salmonella Newport on food contact surface: 4.36 Log CFU/mL
0.5% with 0.0001% saponin microemulsion, Day 3, 304 SS
  Survivors of Salmonella Newport on food contact surface: 4.39 Log CFU/mL
0.5% with 0.0001% saponin microemulsion, Day 3, 316 SS
  Survivors of Salmonella Newport on food contact surface: 4.26 Log CFU/mL
0.5% with 0.0001% saponin microemulsion, Day 3, Buna N
  Survivors of Salmonella Newport on food contact surface: 4.34 Log CFU/mL
0.5% with 0.0001% saponin microemulsion, Day 3, HDPE
  Survivors of Salmonella Newport on food contact surface: 3.24 Log CFU/mL
0.5% with 0.0001% saponin microemulsion, Day 3, PC
  Survivors of Salmonella Newport on food contact surface: 3.75 Log CFU/mL
0.5% with 0.0001% saponin microemulsion, Day 3, PVC
  Survivors of Salmonella Newport on food contact surface: 4.21 Log CFU/mL
0.7% with 0.0001% saponin microemulsion, Day 0, 304 SS
  Survivors of Salmonella Newport on food contact surface: 4.0 Log CFU/mL
0.7% with 0.0001% saponin microemulsion, Day 0, 316 SS
  Survivors of Salmonella Newport on food contact surface: 4.68 Log CFU/mL
0.7% with 0.0001% saponin microemulsion, Day 0, Buna N
  Survivors of Salmonella Newport on food contact surface: 4.08 Log CFU/mL
0.7% with 0.0001% saponin microemulsion, Day 0, HDPE
  Survivors of Salmonella Newport on food contact surface: 4.42 Log CFU/mL
0.7% with 0.0001% saponin microemulsion, Day 0, PC
  Survivors of Salmonella Newport on food contact surface: 4.11 Log CFU/mL
0.7% with 0.0001% saponin microemulsion, Day 0, PVC
  Survivors of Salmonella Newport on food contact surface: <1 Log CFU/mL
0.7% with 0.0001% saponin microemulsion, Day 1, 304 SS
  Survivors of Salmonella Newport on food contact surface: 3.68 Log CFU/mL
0.7% with 0.0001% saponin microemulsion, Day 1, 316 SS
  Survivors of Salmonella Newport on food contact surface: 3.0 Log CFU/mL
0.7% with 0.0001% saponin microemulsion, Day 1, Buna N
  Survivors of Salmonella Newport on food contact surface: 3.24 Log CFU/mL
0.7% with 0.0001% saponin microemulsion, Day 1, HDPE
  Survivors of Salmonella Newport on food contact surface: <1 Log CFU/mL
0.7% with 0.0001% saponin microemulsion, Day 1, PC
  Survivors of Salmonella Newport on food contact surface: 3.29 Log CFU/mL
0.7% with 0.0001% saponin microemulsion, Day 1, PVC
  Survivors of Salmonella Newport on food contact surface: <1 Log CFU/mL
0.7% with 0.0001% saponin microemulsion, Day 3, 304 SS
  Survivors of Salmonella Newport on food contact surface: <1 Log CFU/mL
0.7% with 0.0001% saponin microemulsion, Day 3, 316 SS
  Survivors of Salmonella Newport on food contact surface: <1 Log CFU/mL
0.7% with 0.0001% saponin microemulsion, Day 3, Buna N
  Survivors of Salmonella Newport on food contact surface: <1 Log CFU/mL
0.7% with 0.0001% saponin microemulsion, Day 3, HDPE
  Survivors of Salmonella Newport on food contact surface: <1 Log CFU/mL
0.7% with 0.0001% saponin microemulsion, Day 3, PC
  Survivors of Salmonella Newport on food contact surface: <1 Log CFU/mL
0.7% with 0.0001% saponin microemulsion, Day 3, PVC
  Survivors of Salmonella Newport on food contact surface: <1 Log CFU/mL
1% with 0.0001% saponin microemulsion, Day 0, 304 SS
  Survivors of Salmonella Newport on food contact surface: <1 Log CFU/mL
1% with 0.0001% saponin microemulsion, Day 0, 316 SS
  Survivors of Salmonella Newport on food contact surface: <1 Log CFU/mL
1% with 0.0001% saponin microemulsion, Day 0, Buna N
  Survivors of Salmonella Newport on food contact surface: <1 Log CFU/mL
1% with 0.0001% saponin microemulsion, Day 0, HDPE
  Survivors of Salmonella Newport on food contact surface: <1 Log CFU/mL
1% with 0.0001% saponin microemulsion, Day 0, PC
  Survivors of Salmonella Newport on food contact surface: <1 Log CFU/mL
1% with 0.0001% saponin microemulsion, Day 0, PVC
  Survivors of Salmonella Newport on food contact surface: <1 Log CFU/mL
1% with 0.0001% saponin microemulsion, Day 1, 304 SS
  Survivors of Salmonella Newport on food contact surface: <1 Log CFU/mL
1% with 0.0001% saponin microemulsion, Day 1, 316 SS
  Survivors of Salmonella Newport on food contact surface: <1 Log CFU/mL
1% with 0.0001% saponin microemulsion, Day 1, Buna N
  Survivors of Salmonella Newport on food contact surface: <1 Log CFU/mL
1% with 0.0001% saponin microemulsion, Day 1, HDPE
  Survivors of Salmonella Newport on food contact surface: <1 Log CFU/mL
1% with 0.0001% saponin microemulsion, Day 1, PC
  Survivors of Salmonella Newport on food contact surface: <1 Log CFU/mL
1% with 0.0001% saponin microemulsion, Day 1, PVC
  Survivors of Salmonella Newport on food contact surface: <1 Log CFU/mL
1% with 0.0001% saponin microemulsion, Day 3, 304 SS
  Survivors of Salmonella Newport on food contact surface: <1 Log CFU/mL
1% with 0.0001% saponin microemulsion, Day 3, 316 SS
  Survivors of Salmonella Newport on food contact surface: <1 Log CFU/mL
1% with 0.0001% saponin microemulsion, Day 3, Buna N
  Survivors of Salmonella Newport on food contact surface: <1 Log CFU/mL
1% with 0.0001% saponin microemulsion, Day 3, HDPE
  Survivors of Salmonella Newport on food contact surface: <1 Log CFU/mL
1% with 0.0001% saponin microemulsion, Day 3, PC
  Survivors of Salmonella Newport on food contact surface: <1 Log CFU/mL
1% with 0.0001% saponin microemulsion, Day 3, PVC
  Survivors of Salmonella Newport on food contact surface: <1 Log CFU/mL
